Laboratory results from patent US8268869B2, “Vinyl indazolyl compounds” (Eli Lilly and Company, priority 2009, dated 2012).

Columns and labels:
[1] = test system: FGF9 induced ERK phosphorylation in Human RT112 bladder carcinoma cells; experiment: FGF9 induced p-ERK with BSA in RT112 cells; format: cell-based; conditions: RT-112, relative IC50, RT112 cells, 20 mg/mL BSA, 500 ng/mL FGF9
Method: Human RT112 bladder carcinoma cells are seeded at a density of 5,000 cells per well in 100 μL RPMI 1640 (Gibco 11875-085) supplemented with 10% fetal bovine serum (FBS, Gibco 10082-147) and 1% of a penicillin/streptomycin solution (Gibco 15140-122) in CELLBIND® 96 well plates (Corning 3340) and incubated overnight at 37° C. The next morning the growth medium is removed and replaced with 100 μL RPMI 1640 supplemented with 20 mg/mL bovine serum albumin (BSA). After 3 hours of incubation at 37° C., 20 μL of 3× serially diluted compounds in RPMI 1640 with 20 mg/mL BSA in 6% DMSO are added to each well. This yielded a 10 point dose-response curve ranging from 10-0.005 μM in 1% DMSO. The incubation is continued for 1 hour at 37° C. The cells are stimulated with 50 μL of a […] FGF9 (R&D Systems 273-F9) solution in serum free RPMI to give a final concentration of 500 ng/mL FGF9. Cells are fixed by the addition of 30 μL of a 25% formaldehyde solution in phosphate buffered saline (PBS) (3.7% formaldehyde final concentration), and incubated 30 minutes at RT. Cells are washed 3× with PBS, followed by the addition of 100 μL of cold methanol and incubated for 30 minutes at −20° C. The methanol is removed and the cells are treated with PBS containing 0.1% TRITON® X-100 (PBST), washed 3× with PBS, and incubated 15 minutes at RT. […]

[2] = test system: FGF receptor 1 (b-FGF induced pERK in HUVEC); experiment: AlphaScreen SureFire Detection of ERK phosphorylation (Thr202/Tyr204) in HUVEC; format: cell-based; conditions: Homo sapiens, b-FGF 50 ng/mL, 20 mg/mL BSA
Method: The effect of compounds on the inhibition of FGF receptor 1 is measured by monitoring the phosphorylation of ERK (pERK) in response to basic-Fibroblast growth factor (b-FGF) stimulation in Human Umbilical Endothelial cells (HUVEC). The levels of pERK formed are measured using the ALPHASCREEN® […]® system (TGR Biosciences, TGRES50K). This is a homogeneous assay format utilizing the immuno-sandwich capture of the phosphorylated analyte followed by detection using antibody-coated ALPHASCREEN® beads (Perkin Elmer) to generate an amplified signal.
HUVEC cells are recovered and maintained in growth medium consisting of endothelial cell basal medium (Clonetics, CC-3132) supplemented with 10% FBS 0.4% bovine brain extract 0.1% hydrocortisone, 0.1% gentamicin sulfate amphotericin-B (GA-1000), and 0.1% epidermal growth factor, human recombination until passage 7. For the assay, cells are harvested by standard procedures and then counted. Cells (20,000/well) are plated in 100 μL of growth medium into 96 well Poly-D-Lysine coated plates (BD, 354640). Plates are incubated overnight at 37° C., 5% CO2.
On the day of the assay, cells are serum starved in 100 μL EBM (endothelial cell basal) medium containing 1.5% FBS and 20 mg/mL BSA for 3 hours at 37° C., 5% CO2, then treated with 20 μL of 3× serially diluted compounds in starvation medium for 1 hour at 37° C. […]

Kdr = target: T1, Kdr (Mus musculus, UniProt P35918); experiment: In vivo Kdr target inhibition assay (VEGF induced phospho-Kdr in mouse heart); conditions: female nude mice, oral gavage, VEGF i.v., heart tissue
T1 construct: Heart tissues are collected and homogenized as described above; from tissue; host or cells: heart of female nude mice (CD1/nu/nu)
Method: To assess the activity of this compound against Kdr, female nude mice (CD1/nu/nu) are acclimated and treated as described above except VEGF is used to induce Kdr autophosphorylation {VEGF (6 ug/animal, R & D Systems 493-MV/CF). Heart tissues are collected and homogenized as described above. The resulting homogenates are analyzed using MSD® phospho-Kdr ELISA (Meso Scale Discovery, catalog number N41ZA-1) to determine tissue phospho-Kdr level. […] The positive control group is treated with VEGF […]) in saline administered intravenously (as minimum p-KDR inhibition of 0%).

[3] = test system: Human bladder cancer cells RT112; experiment: Xenograft tumor model RT-112 (bladder); format: in vivo, nude mice; conditions: oral gavage
Text: (§1) One of Human bladder cancer cells RT112 (European Collection of Cell Cultures), human multiple myeloma cells OPM-2 (German Collection of Microorganisms and Cell Cultures), human non-small cell lung cancer (NSCL) cells NCI-H460 (American Type Culture Collection), human pancreatic cancer cells BxPC-3 (American Type Culture Collection) or human gastric cancer cells SNU-16 (American Type Culture Collection) are expanded in culture, according to KOREAN CELL LINE BANK (KCLB) recommendations, harvested and injected subcutaneously onto the rear flank of nude mice. When tumors are established (7-21 days after implant), animals are randomized and grouped into control and test groups. Test compound is prepared in an appropriate vehicle (i.e. formulated in 10% Acacia), and the test compound and a vehicle control are administered by oral gavage. Tumor response is determined by tumor volume measurement performed twice a week during the course of treatment and reported as percent inhibition of tumor volume versus the vehicle control group.

[4] = test system: human gastric cancer cells SNU-16; experiment: Xenograft tumor model SNU-16 (gastric); format: in vivo, nude mice; conditions: oral gavage
Text: as §1

[5] = test system: human multiple myeloma cells OPM-2; experiment: Xenograft tumor model OPM-2 (multiple myeloma); format: in vivo, nude mice; conditions: oral gavage
Text: as §1

[6] = test system: human non-small cell lung cancer (NSCL) cells NCI-H460; experiment: Xenograft tumor model NCI-H460 (NSCLC); format: in vivo, nude mice; conditions: oral gavage
Text: as §1

[7] = test system: human pancreatic cancer cells BxPC-3; experiment: Xenograft tumor model BxPC-3 (pancreatic); format: in vivo, nude mice; conditions: oral gavage
Text: as §1

T1 sequence (P35918 20-1345): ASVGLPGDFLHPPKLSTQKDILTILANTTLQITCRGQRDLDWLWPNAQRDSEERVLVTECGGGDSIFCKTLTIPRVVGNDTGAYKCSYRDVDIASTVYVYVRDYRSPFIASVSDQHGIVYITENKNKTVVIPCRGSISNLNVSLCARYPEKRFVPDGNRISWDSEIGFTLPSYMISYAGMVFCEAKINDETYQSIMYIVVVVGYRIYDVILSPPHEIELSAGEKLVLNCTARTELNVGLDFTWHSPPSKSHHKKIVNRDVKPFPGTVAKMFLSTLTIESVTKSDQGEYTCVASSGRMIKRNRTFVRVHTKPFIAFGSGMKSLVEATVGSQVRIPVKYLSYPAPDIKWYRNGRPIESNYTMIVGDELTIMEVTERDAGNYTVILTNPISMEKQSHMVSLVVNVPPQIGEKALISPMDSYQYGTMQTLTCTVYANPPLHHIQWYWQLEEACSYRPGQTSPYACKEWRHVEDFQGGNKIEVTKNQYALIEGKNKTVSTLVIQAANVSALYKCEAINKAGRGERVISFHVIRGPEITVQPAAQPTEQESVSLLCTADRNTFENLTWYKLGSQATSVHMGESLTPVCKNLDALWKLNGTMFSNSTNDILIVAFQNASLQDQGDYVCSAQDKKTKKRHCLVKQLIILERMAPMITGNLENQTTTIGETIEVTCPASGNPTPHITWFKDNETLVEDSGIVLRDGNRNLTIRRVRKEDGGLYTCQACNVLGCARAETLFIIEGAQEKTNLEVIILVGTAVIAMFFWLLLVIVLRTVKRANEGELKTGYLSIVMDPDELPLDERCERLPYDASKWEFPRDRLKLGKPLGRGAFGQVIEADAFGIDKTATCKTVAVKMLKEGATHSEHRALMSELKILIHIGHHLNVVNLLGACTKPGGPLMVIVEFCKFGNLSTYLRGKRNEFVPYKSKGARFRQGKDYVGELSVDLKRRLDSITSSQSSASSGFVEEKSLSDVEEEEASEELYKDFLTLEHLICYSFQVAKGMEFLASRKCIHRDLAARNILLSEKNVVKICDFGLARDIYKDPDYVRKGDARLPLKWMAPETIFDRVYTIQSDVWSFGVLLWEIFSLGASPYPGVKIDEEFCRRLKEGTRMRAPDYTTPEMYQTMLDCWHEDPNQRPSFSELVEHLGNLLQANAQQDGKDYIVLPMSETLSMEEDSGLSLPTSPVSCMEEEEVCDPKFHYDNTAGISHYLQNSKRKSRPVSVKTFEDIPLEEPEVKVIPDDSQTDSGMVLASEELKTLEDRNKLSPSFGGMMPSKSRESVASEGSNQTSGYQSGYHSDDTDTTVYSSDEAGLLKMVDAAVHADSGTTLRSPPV

C[C@@H](Oc1ccc2[nH]nc(/C=C/c3cnn(CCO)c3)c2c1)c1c(Cl)cncc1Cl [Example 1, (R)-(E)-2-(4-(2-(5-(1-(3,5-Dichloropyridin-4-yl)ethoxy)-1H-indazol-3-yl)vinyl)-1H-pyrazol-1-yl)ethanol]
IC50 [1]: 0.4 nM | IC50 [2]: 0.6 nM | TEC90 (concentration necessary to achieve 90% inhibition of phospho-Kdr) (Kdr): 252 nM | TED50 (dose necessary to achieve 50% inhibition of phospho-Kdr) (Kdr): 1.34 mg/kg | percent inhibition of tumor volume versus vehicle control ([3]; RT-112, 3 mg/kg BID for 21 days): 85.9% | percent inhibition of tumor volume versus vehicle control ([3]; RT-112, 3 mg/kg QD for 21 days): 41.3% | percent inhibition of tumor volume versus vehicle control ([4]; SNU-16, 3 mg/kg BID for 17 days): 83% | percent inhibition of tumor volume versus vehicle control ([4]; SNU-16, 3 mg/kg QD for 17 days): 62% | percent inhibition of tumor volume versus vehicle control ([5]; OPM-2, 3 mg/kg BID for 21 days): 84% | percent inhibition of tumor volume versus vehicle control ([5]; OPM-2, 3 mg/kg QD for 21 days): 68% | percent inhibition of tumor volume versus vehicle control ([6]; NCI-H460, 3 mg/kg BID for 17 days): 69% | percent inhibition of tumor volume versus vehicle control ([6]; NCI-H460, 3 mg/kg QD for 17 days): 46% | percent inhibition of tumor volume versus vehicle control ([7]; BxPC-3, 3 mg/kg BID for 21 days): 55% | percent inhibition of tumor volume versus vehicle control ([7]; BxPC-3, 3 mg/kg QD for 21 days): 1%
